Data as given in patent US9980979B2, “Compounds and methods for enhancing erythropoiesis” (NATIONAL YANG-MING UNIVERSITY, priority 2008, dated 2018).

What was measured:
[1] = tested on: erythroid progenitor cells (bone marrow cells); test: burst-forming-units-erythroid (BFU-E) assay on bone marrow cells in culture; format: cell-based, C57BL/6JNarl mice; conditions: 0.5~12.5 μg/ml, 9 days, with 2 U/ml Epo and 10 ng/ml IL-3; versus 0 concentration; FIG. 2
Experimental: To investigate the effect of “Compound A” on erythroid progenitor cells, burst-forming-units-erythroid (BFU-E) assay was conducted according to the procedures described in Corazza et al. (2004) and Jin et al. (2003) with modifications. Briefly, 6-week-old C57BL/6JNarl mice were purchased from the National Laboratory Animal Center (NLAC, Taiwan). Bone marrow cells were isolated from the mice, and the cell suspension was adjusted to about 8.3×10^4 cells/ml in α-MEM containing 15% (v/v) FBS (Gibco), 1% (v/v) BSA (Sigma-Aldrich), 0.8% (w/v) methylcellulose (Sigma-Aldrich), 10 μM 2-mercaptoethanol (Sigma-Aldrich), 2 U/ml Epo (Recormon Epoetin, Roche), and 10 ng/ml IL-3 (Sigma-Aldrich). Cells were plated at approximately 7.5×10^4 cells/well in 24-well plates (Falcon). They were incubated with different concentrations of Compound A (0, 0.1, 0.5, 2.5 and 12.5 μg/ml), respectively, for 9 days in a humidified 37° C. incubator containing 5% CO2-95% air. The colonies were stained with 3-(4,5-dimethylthiazol-2-yl)-2,5-diphenyl-tetrazolium bromide (50 m/50 μl/well) (MTT; Sigma-Aldrich). Plates were photographed while colonies of more than 50 cells were counted. Results were expressed as mean±S.E. (n=3). Statistical significance was evaluated by Student's t test (*P<0.05 and **P<0.01 versus control group (i.e., 0 concentration)).

[2] = tested on: erythropoietin (Epo); test: Epo expression in isolated hepatocytes (RT-PCR); format: cell-based, mouse; conditions: 0.1-12.5 μg/ml, 24 hours; FIG. 4
Experimental: C57BL/6JNarl mice, 8-10 weeks of age, were purchased from the National Laboratory Animal Center (NLAC, Taiwan). The hepatocytes were isolated as previously described with modifications (Kreamer et al., 1986). Briefly, mice were anaesthetized with Avertin (2% (w/v) 2,2,2-tribromoethanol, i.p., 300 mg/Kg body weight) and the liver was perfused in situ through portal vein with a calcium-free Hank's balanced salt solution (HBSS) containing 0.5 mM Ethylene glycol-bis(2-aminoethylether)-N,N,N′,N′-tetraacetic acid (EGTA; Sigma-Aldrich). […] After 10 min of perfusion, HBSS containing 0.05% (w/v) collagenase (Type II; Worthington Biochemical Corporation) and 1 mM calcium chloride (Sigma-Aldrich) was introduced into the perfusion apparatus. The perfusion was continued for another 10 min at the same flow rate. The partially digested liver was removed, placed in a 60-mm culture dish (BD Falcon) containing HBSS, and gently minced to open the liver capsula. […]
The isolated hepatocytes were plated in 6-well plates (Costar) at approximately 6×10^5 cells/well in DMEM medium (Gibco/Invitrogen) containing 10% FBS (Gibco) in a humidified 37° C. incubator containing 5% CO2-95% air. […] The RNA of hepatocyte was extracted by RNA-Bee™ RNA isolation solvent (Tel-test) for reverse transcription, and the transcripts analyzed by PCR as previously described.

[3] = tested on: cisplatin-induced acute renal failure animal model; test: cisplatin-induced acute renal failure animal model: red blood cell count and blood urea nitrogen; format: in vivo, C57BL/6JNarl mice
Experimental: The effects of Compound A treatment on cisplatin-induced acute renal failure animal model were investigated. C57BL/6JNarl mice (8-week-old) were purchased from the National Laboratory Animal Center (NLAC, Taiwan). Cisplatin (Sigma-Aldrich) was dissolved in normal saline (0.9% (w/v) sodium chloride, Sigma-Aldrich) at a concentration of 1 mg/ml, and injected into mice intraperitoneally (i.p.) according to the following schedule: day 1, 7 mg/kg; day 5, 6 mg/kg; and day 9, 6 mg/kg. For cisplatin-untreated normal mice group, normal saline injections of corresponding volumes were given i.p. in parallel. At day 13, serum samples were collected and blood urea nitrogen (BUN) contents were assayed. Cisplatin-injected mice with BUN levels more than 100 mg/dl and the cisplatin-untreated normal mice were further divided into 5 groups, 6 mice per group, for feeding with Compound A for 2 weeks: (1) Normal group: Mice were injected with normal saline and followed by feeding with a standard diet; (2) Control group: Mice were injected with cisplatin and followed by feeding with a standard diet; (3) Pomu 10 mg/kg/day group: Mice were injected with cisplatin and followed by feeding with Compound A at the dose of 10 mg/kg/day; (4) Pomu 30 mg/kg/day group: Mice were injected with cisplatin and followed by Compound A at the dose of 30 mg/kg/day; (5) Pomu 90 mg/kg/day group: Mice were injected with cisplatin and followed by Compound A treatment at the dose of 90 mg/kg/day. Blood samples were collected from the retro-orbital sinus of mice at day 0, 5, 10, 13, 18, 23 and 28. Red blood cell (RBC) concentrations were determined by complete blood cell count using Sysmex® Kx-21 hematology analyzer. Blood urea nitrogen (BUN) levels were determined by urease GLDH method (Urea FS, DiaSys). Results were expressed as mean±S.E. (n=5˜6). Statistical significance was evaluated by Student's t test (##P<0.01 versus normal group and **P<0.01 versus control group). […] The horizontal arrow in FIGS. 7 and 8 represents Compound A treatment (mg/Kg/day). […] The results were in agreement with the ability of the Compound A in enhancing erythropoiesis.

OC[C@H]1O[C@@H](Oc2c(O)cc(O)cc2/C=C/c2ccc(O)cc2)[C@H](O)[C@@H](O)[C@@H]1O [Compound A, 2,3,5,4′-tetrahydroxystilbene 2-O-β-D-glucopyranoside]
number of BFU-E colonies of bone marrow cells [1]: significantly increased the number of BFU-E colonies
expression of Epo in hepatocytes [2]: enhanced the expression of Epo in hepatocytes
number of red blood cells (RBCs) ([3]; 30~90 mg/kg/day in feed for 2 weeks, time course, FIG. 5): increased the number of red blood cells
serum BUN levels ([3]; 30~90 mg/kg/day in feed for 2 weeks, time course, FIG. 6): decreased serum BUN levels
number of RBCs at day 23 ([3]; 30~90 mg/kg/day, day 23, versus control group, FIG. 7): significantly increased the number of RBCs
serum BUN levels at day 23 ([3]; 30~90 mg/kg/day, day 23, versus control group, FIG. 8): decreasing serum BUN levels
